The source of these data is ChEMBL document CHEMBL1909046, “DrugMatrix in vitro pharmacology data”.

Molecules are shown by their SMILES.

Sequence of Cytochrome P450 2D6 (P10635 whole entry): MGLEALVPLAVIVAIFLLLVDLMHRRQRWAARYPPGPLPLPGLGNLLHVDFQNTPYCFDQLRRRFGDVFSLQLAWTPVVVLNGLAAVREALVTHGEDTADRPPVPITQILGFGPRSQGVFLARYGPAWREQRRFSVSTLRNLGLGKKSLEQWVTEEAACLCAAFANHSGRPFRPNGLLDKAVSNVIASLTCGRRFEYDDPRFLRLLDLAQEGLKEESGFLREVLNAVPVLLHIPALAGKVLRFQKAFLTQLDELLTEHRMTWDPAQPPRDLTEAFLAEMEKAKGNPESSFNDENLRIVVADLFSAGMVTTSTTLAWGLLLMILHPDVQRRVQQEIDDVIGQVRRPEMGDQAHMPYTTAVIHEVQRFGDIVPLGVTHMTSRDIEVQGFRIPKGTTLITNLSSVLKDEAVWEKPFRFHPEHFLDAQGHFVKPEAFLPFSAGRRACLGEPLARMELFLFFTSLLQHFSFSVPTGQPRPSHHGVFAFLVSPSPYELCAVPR
Sequence of Cytochrome P450 2E1 (P05181 whole entry): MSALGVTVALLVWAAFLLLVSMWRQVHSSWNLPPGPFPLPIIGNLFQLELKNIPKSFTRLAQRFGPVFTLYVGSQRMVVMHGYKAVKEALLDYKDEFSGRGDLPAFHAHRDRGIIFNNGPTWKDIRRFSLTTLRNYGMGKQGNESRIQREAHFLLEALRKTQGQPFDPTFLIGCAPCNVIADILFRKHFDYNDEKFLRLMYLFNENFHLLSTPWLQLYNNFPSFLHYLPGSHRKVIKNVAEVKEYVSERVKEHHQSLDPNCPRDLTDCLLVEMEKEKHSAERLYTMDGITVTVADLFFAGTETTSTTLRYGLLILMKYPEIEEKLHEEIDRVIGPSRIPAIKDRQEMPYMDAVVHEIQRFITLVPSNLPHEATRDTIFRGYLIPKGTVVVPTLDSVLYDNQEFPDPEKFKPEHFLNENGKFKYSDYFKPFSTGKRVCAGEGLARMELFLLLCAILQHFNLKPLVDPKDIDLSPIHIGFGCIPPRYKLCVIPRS
Sequence of 5-hydroxytryptamine receptor 2B (P41595 whole entry): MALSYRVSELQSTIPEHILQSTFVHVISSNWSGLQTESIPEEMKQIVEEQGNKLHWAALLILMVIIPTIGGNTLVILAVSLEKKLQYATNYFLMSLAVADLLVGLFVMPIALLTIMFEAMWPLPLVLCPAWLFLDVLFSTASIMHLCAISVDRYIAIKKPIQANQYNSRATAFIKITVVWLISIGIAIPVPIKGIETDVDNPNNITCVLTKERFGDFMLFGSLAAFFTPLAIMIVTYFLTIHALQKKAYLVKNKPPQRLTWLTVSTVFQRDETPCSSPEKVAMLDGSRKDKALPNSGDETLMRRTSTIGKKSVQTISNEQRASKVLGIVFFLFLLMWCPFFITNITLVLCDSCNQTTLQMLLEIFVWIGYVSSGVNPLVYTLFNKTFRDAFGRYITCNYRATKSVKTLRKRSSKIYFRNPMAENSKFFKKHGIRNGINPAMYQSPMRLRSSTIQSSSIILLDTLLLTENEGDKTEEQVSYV
Sequence of 5-hydroxytryptamine receptor 6 (P50406 whole entry): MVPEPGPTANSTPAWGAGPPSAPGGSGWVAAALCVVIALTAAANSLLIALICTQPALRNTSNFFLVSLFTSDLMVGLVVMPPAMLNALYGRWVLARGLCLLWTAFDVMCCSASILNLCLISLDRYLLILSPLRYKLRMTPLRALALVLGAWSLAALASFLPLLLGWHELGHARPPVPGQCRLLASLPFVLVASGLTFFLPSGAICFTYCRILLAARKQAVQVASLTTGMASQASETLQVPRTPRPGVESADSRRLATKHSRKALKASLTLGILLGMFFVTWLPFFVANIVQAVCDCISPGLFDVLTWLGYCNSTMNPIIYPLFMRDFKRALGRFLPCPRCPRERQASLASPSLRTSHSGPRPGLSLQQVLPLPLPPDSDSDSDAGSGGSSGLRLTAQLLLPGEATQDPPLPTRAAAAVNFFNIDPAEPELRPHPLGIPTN

One data set deals with Histamine H2 receptor (Homo sapiens, UniProt P25021).
Sequence of Histamine H2 receptor (P25021 whole entry): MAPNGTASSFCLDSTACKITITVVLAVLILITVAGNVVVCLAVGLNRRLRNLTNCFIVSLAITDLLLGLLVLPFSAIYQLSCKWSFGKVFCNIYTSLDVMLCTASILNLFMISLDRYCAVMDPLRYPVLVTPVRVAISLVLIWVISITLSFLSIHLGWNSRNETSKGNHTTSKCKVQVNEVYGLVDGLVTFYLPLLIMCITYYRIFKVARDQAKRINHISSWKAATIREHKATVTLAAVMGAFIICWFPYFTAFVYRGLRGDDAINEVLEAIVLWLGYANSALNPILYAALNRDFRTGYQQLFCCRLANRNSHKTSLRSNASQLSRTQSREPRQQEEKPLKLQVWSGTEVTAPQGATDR
Experiment: not given
In kind it is cell membranes, CHO-K1, Membrane. The note with it: cho-k1.
Take `C[C@]12CCC(=O)C=C1CC[C@@H]1[C@@H]2C(=O)C[C@@]2(C)[C@H]1CC[C@]2(O)C(=O)CO` [CORTISONE]: the IC50 result is “Not Active”.

As to `CC(=O)O[C@]1(C(C)=O)CC[C@H]2[C@@H]3C=C(Cl)C4=CC(=O)CC[C@]4(C)[C@H]3CC[C@@]21C` [CHLORMADINONE ACETATE], the IC50 result is reported as “Not Active”.

The next data set addresses Cytochrome P450 2E1 (Homo sapiens, UniProt P05181).
Experiment: not given
The note with it: bti-tn-5b1-4.
`C[C@]12CCC(=O)C=C1CC[C@@H]1[C@@H]2C(=O)C[C@@]2(C)[C@H]1CC[C@]2(O)C(=O)CO` [CORTISONE]: the IC50 result was “Not Active” and the Ki entry is reported as “Not Active”.

For `CC(=O)O[C@]1(C(C)=O)CC[C@H]2[C@@H]3C=C(Cl)C4=CC(=O)CC[C@]4(C)[C@H]3CC[C@@]21C` [CHLORMADINONE ACETATE], the IC50 entry is listed as “Not Active” and the Ki entry is reported as “Not Active”.

The next data set has as its target T1, Polyunsaturated fatty acid lipoxygenase ALOX15 (Oryctolagus cuniculus, UniProt P12530).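 Further: inhibition of 15-lipoxygenase enzyme activity measured with linoleic acid as the substrate; in other assays of this panel Not Active means under 50% inhibition at 10 µM.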
T1 sequence (P12530 whole entry): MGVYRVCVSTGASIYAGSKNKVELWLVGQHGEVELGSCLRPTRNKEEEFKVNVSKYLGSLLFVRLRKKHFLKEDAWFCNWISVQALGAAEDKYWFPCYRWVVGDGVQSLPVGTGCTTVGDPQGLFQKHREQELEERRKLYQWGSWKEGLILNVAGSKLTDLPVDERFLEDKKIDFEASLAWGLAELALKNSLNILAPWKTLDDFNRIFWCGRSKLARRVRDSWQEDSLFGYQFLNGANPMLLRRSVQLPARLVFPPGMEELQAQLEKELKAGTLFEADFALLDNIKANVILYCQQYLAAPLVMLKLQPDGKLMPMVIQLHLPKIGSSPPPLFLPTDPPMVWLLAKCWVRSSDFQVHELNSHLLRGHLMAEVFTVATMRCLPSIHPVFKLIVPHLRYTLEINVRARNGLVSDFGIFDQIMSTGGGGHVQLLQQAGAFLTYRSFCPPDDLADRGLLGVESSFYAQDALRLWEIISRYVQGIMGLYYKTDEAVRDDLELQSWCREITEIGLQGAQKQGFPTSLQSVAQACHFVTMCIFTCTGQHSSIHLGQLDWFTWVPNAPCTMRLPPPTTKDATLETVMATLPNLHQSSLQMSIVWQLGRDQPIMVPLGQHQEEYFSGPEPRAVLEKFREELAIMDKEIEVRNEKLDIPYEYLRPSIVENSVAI
As to the kind of experiment: biochemical. It counts as tissue-based, Reticulocytes. The note with it: reticulocytes.
For `C[C@]12CCC(=O)C=C1CC[C@@H]1[C@@H]2C(=O)C[C@@]2(C)[C@H]1CC[C@]2(O)C(=O)CO` [CORTISONE], the IC50 result is reported as “Not Active”.

Take `CC(=O)O[C@]1(C(C)=O)CC[C@H]2[C@@H]3C=C(Cl)C4=CC(=O)CC[C@]4(C)[C@H]3CC[C@@]21C` [CHLORMADINONE ACETATE]: the IC50 entry is reported as “Not Active”.

Another data set concerns the target Cytochrome P450 2D6 (Homo sapiens, UniProt P10635). Further: in other assays of this panel Not Active means under 50% inhibition at 10 µM.
Experiment: not given
The note with it: bti-tn-5b1-4.
For the compound `C[C@]12CCC(=O)C=C1CC[C@@H]1[C@@H]2C(=O)C[C@@]2(C)[C@H]1CC[C@]2(O)C(=O)CO` [CORTISONE], the IC50 entry is “Not Active” and the Ki result is reported as “Not Active”.

For `CC(=O)O[C@]1(C(C)=O)CC[C@H]2[C@@H]3C=C(Cl)C4=CC(=O)CC[C@]4(C)[C@H]3CC[C@@]21C` [CHLORMADINONE ACETATE], the IC50 entry is “Not Active” and the Ki result is on record as “Not Active”.

For a further data set, the target named is T2, Alpha-1B adrenergic receptor (Rattus norvegicus, UniProt P15823).
T2 sequence (P15823 whole entry): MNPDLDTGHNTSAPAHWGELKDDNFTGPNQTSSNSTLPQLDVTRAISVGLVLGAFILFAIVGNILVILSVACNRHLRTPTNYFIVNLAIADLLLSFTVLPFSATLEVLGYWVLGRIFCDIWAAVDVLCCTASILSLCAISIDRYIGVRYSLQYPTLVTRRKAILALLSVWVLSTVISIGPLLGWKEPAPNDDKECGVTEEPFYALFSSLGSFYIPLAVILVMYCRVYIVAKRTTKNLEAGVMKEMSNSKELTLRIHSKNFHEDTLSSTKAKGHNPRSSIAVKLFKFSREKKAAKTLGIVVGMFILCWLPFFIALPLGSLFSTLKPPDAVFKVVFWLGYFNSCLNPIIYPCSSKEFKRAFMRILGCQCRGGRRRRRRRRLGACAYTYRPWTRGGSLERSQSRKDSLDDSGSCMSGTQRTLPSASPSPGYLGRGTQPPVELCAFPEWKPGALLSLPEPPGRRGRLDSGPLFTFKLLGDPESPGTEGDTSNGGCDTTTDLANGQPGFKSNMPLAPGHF
As to the kind of experiment: DRUGMATRIX: Alpha-1B adrenergic receptor radioligand binding (ligand: prazosin). In kind it is cell membranes, Wistar, Liver, Membrane. The note with it: Not Active = under 50% inhibition at 10 µM.
Consider `C[C@]12CCC(=O)C=C1CC[C@@H]1[C@@H]2C(=O)C[C@@]2(C)[C@H]1CC[C@]2(O)C(=O)CO` [CORTISONE], for which the IC50 entry is “Not Active”.

`CC(=O)O[C@]1(C(C)=O)CC[C@H]2[C@@H]3C=C(Cl)C4=CC(=O)CC[C@]4(C)[C@H]3CC[C@@]21C` [CHLORMADINONE ACETATE]: the IC50 entry is recorded as “Not Active”.

Tested on in a further data set: not listed separately
As to the kind of experiment: DRUGMATRIX: Calcium Channel Type L, Benzothiazepine radioligand binding (ligand: [3H] Diltiazem). It counts as cell membranes, Rattus norvegicus, Wistar, Brain, Membrane. The note with it: Not Active = under 50% inhibition at 10 µM.
Take `C[C@]12CCC(=O)C=C1CC[C@@H]1[C@@H]2C(=O)C[C@@]2(C)[C@H]1CC[C@]2(O)C(=O)CO` [CORTISONE]: the IC50 entry is reported as “Not Active” and the Ki entry was “Not Active”.

As to `CC(=O)O[C@]1(C(C)=O)CC[C@H]2[C@@H]3C=C(Cl)C4=CC(=O)CC[C@]4(C)[C@H]3CC[C@@]21C` [CHLORMADINONE ACETATE], the IC50 result was “Not Active” and the Ki result was “Not Active”.

For a further data set, the target named is D(1A) dopamine receptor (Homo sapiens, UniProt P21728). Description: DRUGMATRIX: Dopamine D1 radioligand binding (ligand: [3H] SCH-23390). It counts as cell membranes, CHO, Membrane. The note with it: cho; Not Active = under 50% inhibition at 10 µM.
Sequence of D(1A) dopamine receptor (P21728 whole entry): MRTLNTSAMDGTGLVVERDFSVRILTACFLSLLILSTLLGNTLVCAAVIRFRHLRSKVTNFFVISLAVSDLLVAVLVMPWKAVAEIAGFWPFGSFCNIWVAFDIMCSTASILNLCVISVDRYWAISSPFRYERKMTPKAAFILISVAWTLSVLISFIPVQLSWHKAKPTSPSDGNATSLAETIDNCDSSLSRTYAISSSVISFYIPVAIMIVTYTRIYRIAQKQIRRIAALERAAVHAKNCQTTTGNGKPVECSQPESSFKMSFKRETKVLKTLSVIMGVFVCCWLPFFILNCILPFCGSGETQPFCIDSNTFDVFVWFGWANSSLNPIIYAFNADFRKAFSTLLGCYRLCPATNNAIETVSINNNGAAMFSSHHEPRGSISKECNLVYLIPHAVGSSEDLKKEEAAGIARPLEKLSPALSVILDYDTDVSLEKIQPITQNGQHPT
Consider `C[C@]12CCC(=O)C=C1CC[C@@H]1[C@@H]2C(=O)C[C@@]2(C)[C@H]1CC[C@]2(O)C(=O)CO` [CORTISONE], for which the IC50 entry is listed as “Not Active”.

In the case of `CC(=O)O[C@]1(C(C)=O)CC[C@H]2[C@@H]3C=C(Cl)C4=CC(=O)CC[C@]4(C)[C@H]3CC[C@@]21C` [CHLORMADINONE ACETATE], the IC50 entry is listed as “Not Active”.

The next data set addresses 5-hydroxytryptamine receptor 6 (Homo sapiens, UniProt P50406).
Experiment: not given
In kind it is cell membranes, HeLa, Membrane. The note with it: hela.
For the compound `C[C@]12CCC(=O)C=C1CC[C@@H]1[C@@H]2C(=O)C[C@@]2(C)[C@H]1CC[C@]2(O)C(=O)CO` [CORTISONE], the IC50 entry is recorded as “Not Active”.

As for `CC(=O)O[C@]1(C(C)=O)CC[C@H]2[C@@H]3C=C(Cl)C4=CC(=O)CC[C@]4(C)[C@H]3CC[C@@]21C` [CHLORMADINONE ACETATE], the IC50 entry is recorded as “Not Active”.

For another data set, the target named is T3, Adenosine receptor A3 (Homo sapiens, UniProt P0DMS8).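 Further: radioligand binding assay with AB-MECA serving as the labeled ligand; in other assays of this panel Not Active means under 50% inhibition at 10 µM.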
T3 sequence (P0DMS8 whole entry): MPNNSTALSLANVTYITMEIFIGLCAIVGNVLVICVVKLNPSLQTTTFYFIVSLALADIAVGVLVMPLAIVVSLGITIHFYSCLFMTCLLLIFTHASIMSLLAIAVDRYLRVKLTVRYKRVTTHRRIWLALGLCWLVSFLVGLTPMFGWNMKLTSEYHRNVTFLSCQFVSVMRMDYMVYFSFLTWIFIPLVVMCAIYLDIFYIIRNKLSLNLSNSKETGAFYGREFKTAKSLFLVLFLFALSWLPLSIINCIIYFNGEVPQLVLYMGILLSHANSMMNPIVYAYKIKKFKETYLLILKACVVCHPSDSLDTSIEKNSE
Experiment: not given
It counts as cell membranes, CHO-K1, Membrane. The note with it: cho-k1.
With `C[C@]12CCC(=O)C=C1CC[C@@H]1[C@@H]2C(=O)C[C@@]2(C)[C@H]1CC[C@]2(O)C(=O)CO` [CORTISONE], the IC50 entry is “Not Active”.

Take `CC(=O)O[C@]1(C(C)=O)CC[C@H]2[C@@H]3C=C(Cl)C4=CC(=O)CC[C@]4(C)[C@H]3CC[C@@]21C` [CHLORMADINONE ACETATE]: the IC50 result is “Not Active”.

The next data set has as its target T4, C-X-C chemokine receptor type 2 (Homo sapiens, UniProt P25025). Further: in other assays of this panel Not Active means under 50% inhibition at 10 µM.
T4 sequence (P25025 whole entry): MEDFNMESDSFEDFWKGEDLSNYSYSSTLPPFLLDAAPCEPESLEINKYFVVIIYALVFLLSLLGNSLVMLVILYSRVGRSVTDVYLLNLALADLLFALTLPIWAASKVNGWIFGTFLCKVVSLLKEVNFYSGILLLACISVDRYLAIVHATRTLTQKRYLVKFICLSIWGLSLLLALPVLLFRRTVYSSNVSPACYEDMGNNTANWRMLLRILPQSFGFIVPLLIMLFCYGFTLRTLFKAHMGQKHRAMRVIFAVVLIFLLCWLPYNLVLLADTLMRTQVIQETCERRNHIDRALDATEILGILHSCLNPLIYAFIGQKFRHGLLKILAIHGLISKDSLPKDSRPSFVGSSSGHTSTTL
Experiment: not given
It counts as cell membranes, Membrane. The note with it: cho-k1.
In the case of `C[C@]12CCC(=O)C=C1CC[C@@H]1[C@@H]2C(=O)C[C@@]2(C)[C@H]1CC[C@]2(O)C(=O)CO` [CORTISONE], the IC50 entry is given as “Not Active”.

As to `CC(=O)O[C@]1(C(C)=O)CC[C@H]2[C@@H]3C=C(Cl)C4=CC(=O)CC[C@]4(C)[C@H]3CC[C@@]21C` [CHLORMADINONE ACETATE], the IC50 entry is “Not Active”.

A further data set concerns the target 5-hydroxytryptamine receptor 2B (Homo sapiens, UniProt P41595). Further: in other assays of this panel Not Active means under 50% inhibition at 10 µM.
Experiment: not given
It counts as cell membranes, CHO-K1, Membrane. The note with it: cho-k1.
Take `C[C@]12CCC(=O)C=C1CC[C@@H]1[C@@H]2C(=O)C[C@@]2(C)[C@H]1CC[C@]2(O)C(=O)CO` [CORTISONE]: the IC50 entry is given as “Not Active”.

Consider `CC(=O)O[C@]1(C(C)=O)CC[C@H]2[C@@H]3C=C(Cl)C4=CC(=O)CC[C@]4(C)[C@H]3CC[C@@]21C` [CHLORMADINONE ACETATE], for which the IC50 result is given as “Not Active”.

The target of the next data set is Beta-3 adrenergic receptor (Homo sapiens, UniProt P13945). Description: DRUGMATRIX: Adrenergic beta3 radioligand binding (ligand: [125I] Cyanopindolol). The note with it: hek293; Not Active = under 50% inhibition at 10 µM. It counts as cell membranes, HEK293, Membrane.
Sequence of Beta-3 adrenergic receptor (P13945 whole entry): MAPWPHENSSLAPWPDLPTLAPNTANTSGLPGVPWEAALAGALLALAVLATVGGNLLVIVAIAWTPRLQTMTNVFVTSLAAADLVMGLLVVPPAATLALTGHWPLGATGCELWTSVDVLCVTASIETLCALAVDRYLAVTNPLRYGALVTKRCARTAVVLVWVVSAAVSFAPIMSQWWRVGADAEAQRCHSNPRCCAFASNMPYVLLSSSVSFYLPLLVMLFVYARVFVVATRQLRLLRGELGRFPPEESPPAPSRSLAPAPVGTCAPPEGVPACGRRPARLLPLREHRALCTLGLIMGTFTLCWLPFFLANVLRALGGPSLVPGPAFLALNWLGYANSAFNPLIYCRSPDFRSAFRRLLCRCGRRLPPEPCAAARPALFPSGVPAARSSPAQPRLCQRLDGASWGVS
Regarding `C[C@]12CCC(=O)C=C1CC[C@@H]1[C@@H]2C(=O)C[C@@]2(C)[C@H]1CC[C@]2(O)C(=O)CO` [CORTISONE], the IC50 result is on record as “Not Active”.

In the case of `CC(=O)O[C@]1(C(C)=O)CC[C@H]2[C@@H]3C=C(Cl)C4=CC(=O)CC[C@]4(C)[C@H]3CC[C@@]21C` [CHLORMADINONE ACETATE], the IC50 entry was “Not Active”.

Tested on in a further data set: not listed separately
Description: DRUGMATRIX: GABAA, Chloride Channel, TBOB radioligand binding (ligand: [3H] TBOB). The note with it: Not Active = under 50% inhibition at 10 µM. It counts as cell membranes, Rattus norvegicus, Wistar, Cerebral cortex, Membrane.
With `C[C@]12CCC(=O)C=C1CC[C@@H]1[C@@H]2C(=O)C[C@@]2(C)[C@H]1CC[C@]2(O)C(=O)CO` [CORTISONE], the IC50 result is “Not Active” and the Ki entry is listed as “Not Active”.

With `CC(=O)O[C@]1(C(C)=O)CC[C@H]2[C@@H]3C=C(Cl)C4=CC(=O)CC[C@]4(C)[C@H]3CC[C@@]21C` [CHLORMADINONE ACETATE], the IC50 result is given as “Not Active” and the Ki entry is “Not Active”.
